Data on ten compounds can be found in patent US20230139171A1 (SITA Information Networking Computing UK Limited, priority 2019, published 2023).

The structures appear in SMILES notation.

Common to all, as to format: cell-based
One assay has as its target T1, human TLR7 (Homo sapiens, UniProt Q9NYK1).
T1 construct: host or cells: HEK-Blue cells
T1 sequence (Q9NYK1 27-1049): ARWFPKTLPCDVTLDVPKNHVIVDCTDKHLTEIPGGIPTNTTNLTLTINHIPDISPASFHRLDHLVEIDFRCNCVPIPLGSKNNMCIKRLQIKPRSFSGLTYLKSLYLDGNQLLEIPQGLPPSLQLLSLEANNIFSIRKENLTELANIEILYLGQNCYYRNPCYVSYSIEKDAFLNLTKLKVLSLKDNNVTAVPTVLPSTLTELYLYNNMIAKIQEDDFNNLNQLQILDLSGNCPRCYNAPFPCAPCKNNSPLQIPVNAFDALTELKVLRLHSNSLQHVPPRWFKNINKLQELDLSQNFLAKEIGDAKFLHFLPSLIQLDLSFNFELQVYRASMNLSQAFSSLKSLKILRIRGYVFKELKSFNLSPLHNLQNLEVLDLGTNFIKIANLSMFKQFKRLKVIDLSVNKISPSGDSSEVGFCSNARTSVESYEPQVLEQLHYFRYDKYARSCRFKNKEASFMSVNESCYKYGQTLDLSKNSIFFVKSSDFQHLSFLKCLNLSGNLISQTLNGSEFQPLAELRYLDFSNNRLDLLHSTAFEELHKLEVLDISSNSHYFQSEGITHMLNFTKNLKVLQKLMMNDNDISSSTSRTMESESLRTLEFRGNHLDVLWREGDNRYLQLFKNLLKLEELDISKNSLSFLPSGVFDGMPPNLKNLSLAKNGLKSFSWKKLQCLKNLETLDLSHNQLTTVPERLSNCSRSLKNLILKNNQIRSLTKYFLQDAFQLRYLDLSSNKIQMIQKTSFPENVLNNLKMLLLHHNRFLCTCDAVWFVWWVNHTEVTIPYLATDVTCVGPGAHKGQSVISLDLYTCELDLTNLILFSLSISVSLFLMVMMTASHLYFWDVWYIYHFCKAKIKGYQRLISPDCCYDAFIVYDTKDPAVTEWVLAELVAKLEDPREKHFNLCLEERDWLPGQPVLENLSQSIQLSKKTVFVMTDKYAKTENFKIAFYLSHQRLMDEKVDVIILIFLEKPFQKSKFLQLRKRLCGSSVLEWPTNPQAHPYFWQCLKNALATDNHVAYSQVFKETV
As to the kind of experiment: TLR7 inhibition reporter assay (HEK-Blue cells, SEAP reporter, gardiquimod stimulation). Conditions: HEK-Blue cells overexpressing human TLR7, SEAP reporter, gardiquimod 7.5 μM; read-out: TLR7 IC50. The method in brief:
(§1)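 Dose–response from 0.05 nM to 50 μM was run in HEK-Blue human TLR7, TLR8 and TLR9 reporter cells. After 30 min at room temperature with compound, ligand was added (TLR7 gardiquimod 7.5 μM; TLR8 R848 15.9 μM; TLR9 ODN2006 5 nM) and SEAP measured next day, at 22 h.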
For orientation: A reporter such as luciferase makes a cellular process visible.

The target in a further assay is T2, human TLR9 (Homo sapiens, UniProt Q9NR96).
T2 construct: host or cells: HEK-Blue cells
T2 sequence (Q9NR96 26-1032): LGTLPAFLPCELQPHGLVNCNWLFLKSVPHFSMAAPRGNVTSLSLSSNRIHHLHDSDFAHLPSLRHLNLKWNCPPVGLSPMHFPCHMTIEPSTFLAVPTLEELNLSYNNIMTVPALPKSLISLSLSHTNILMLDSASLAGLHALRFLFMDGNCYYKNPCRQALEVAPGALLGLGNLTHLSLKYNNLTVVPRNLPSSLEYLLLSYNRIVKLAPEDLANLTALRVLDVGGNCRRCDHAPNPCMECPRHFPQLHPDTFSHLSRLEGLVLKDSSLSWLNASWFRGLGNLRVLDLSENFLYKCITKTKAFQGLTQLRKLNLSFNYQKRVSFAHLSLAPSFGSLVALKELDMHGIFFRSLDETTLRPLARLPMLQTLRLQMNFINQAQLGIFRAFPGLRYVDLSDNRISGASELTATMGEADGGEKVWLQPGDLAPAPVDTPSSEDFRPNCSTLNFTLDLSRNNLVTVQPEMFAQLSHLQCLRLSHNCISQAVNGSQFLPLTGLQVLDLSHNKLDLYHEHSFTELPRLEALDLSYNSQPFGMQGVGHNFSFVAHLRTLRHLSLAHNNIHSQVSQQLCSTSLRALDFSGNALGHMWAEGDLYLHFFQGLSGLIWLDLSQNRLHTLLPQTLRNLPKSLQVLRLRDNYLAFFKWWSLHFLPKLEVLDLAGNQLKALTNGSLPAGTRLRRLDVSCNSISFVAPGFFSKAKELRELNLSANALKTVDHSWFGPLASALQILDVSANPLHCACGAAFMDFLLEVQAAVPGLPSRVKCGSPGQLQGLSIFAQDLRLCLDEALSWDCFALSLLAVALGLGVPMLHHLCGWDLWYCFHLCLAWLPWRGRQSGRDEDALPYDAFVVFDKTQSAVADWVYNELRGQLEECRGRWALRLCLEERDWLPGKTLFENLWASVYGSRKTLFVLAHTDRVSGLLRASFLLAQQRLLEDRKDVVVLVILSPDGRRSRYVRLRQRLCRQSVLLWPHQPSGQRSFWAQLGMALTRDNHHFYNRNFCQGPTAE
As to the kind of experiment: TLR9 inhibition reporter assay (HEK-Blue cells, SEAP reporter, ODN2006 stimulation). Conditions: HEK-Blue cells overexpressing human TLR9, SEAP reporter, ODN2006 5 nM. The method in brief: as §1

In the next assay the target is T3, human TLR8 (Homo sapiens, UniProt Q9NR97).
T3 construct: host or cells: HEK-Blue cells
T3 sequence (Q9NR97 27-1041): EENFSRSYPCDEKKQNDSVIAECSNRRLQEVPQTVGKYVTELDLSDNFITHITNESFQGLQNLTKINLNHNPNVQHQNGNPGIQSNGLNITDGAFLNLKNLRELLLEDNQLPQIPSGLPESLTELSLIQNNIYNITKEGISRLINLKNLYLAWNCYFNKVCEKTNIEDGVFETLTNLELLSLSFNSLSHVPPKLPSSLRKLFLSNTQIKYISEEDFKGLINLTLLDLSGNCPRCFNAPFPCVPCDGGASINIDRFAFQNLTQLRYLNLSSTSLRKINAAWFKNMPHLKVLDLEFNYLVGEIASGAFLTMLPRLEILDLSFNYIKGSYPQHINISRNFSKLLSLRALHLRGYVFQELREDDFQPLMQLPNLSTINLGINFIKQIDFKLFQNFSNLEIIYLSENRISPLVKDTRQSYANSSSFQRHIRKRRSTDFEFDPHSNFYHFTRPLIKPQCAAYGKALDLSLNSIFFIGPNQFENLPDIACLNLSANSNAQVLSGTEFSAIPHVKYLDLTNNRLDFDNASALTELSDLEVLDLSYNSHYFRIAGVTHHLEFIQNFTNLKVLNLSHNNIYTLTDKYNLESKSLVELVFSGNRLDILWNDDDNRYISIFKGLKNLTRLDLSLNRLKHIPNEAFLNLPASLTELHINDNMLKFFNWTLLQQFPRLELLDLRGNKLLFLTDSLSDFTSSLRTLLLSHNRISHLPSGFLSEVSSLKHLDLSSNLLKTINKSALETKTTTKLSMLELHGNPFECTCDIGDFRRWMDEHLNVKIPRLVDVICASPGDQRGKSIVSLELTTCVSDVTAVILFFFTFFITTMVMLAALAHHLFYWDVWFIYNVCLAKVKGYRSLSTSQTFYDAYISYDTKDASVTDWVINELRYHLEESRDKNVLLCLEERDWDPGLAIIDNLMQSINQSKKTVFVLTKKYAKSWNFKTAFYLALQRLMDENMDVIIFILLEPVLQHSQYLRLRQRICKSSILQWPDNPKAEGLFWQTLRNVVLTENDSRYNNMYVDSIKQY
As to the kind of experiment: TLR8 inhibition reporter assay (HEK-Blue cells, SEAP reporter, R848 stimulation). Conditions: HEK-Blue cells overexpressing human TLR8, SEAP reporter, R848 15.9 μM; read-out: TLR8 IC50. In a few lines:
as §1

As to `Cc1cc(-c2[nH]c3sc(C4CCC(NCC(C)(C)O)CC4)nc3c2C(C)C)cn2ncnc12` (single isomer, unassigned) [Example 140, 1-((4-(6-isopropyl-5-(8-methyl-[1,2,4]triazolo[1,5-a]pyridin-6-yl)-4H-pyrrolo[3,2-d]thiazol-2-yl)cyclohexyl)amino)-2-methylpropan-2-ol], the IC50 (usually the midpoint of a concentration-inhibition curve) worked out at 0.59 nM at human TLR7, 10400 nM against human TLR9 and 0.89 nM at human TLR8.

Take `Cc1cc(-c2[nH]c3sc(C4CCC(NCC(C)(C)O)CC4)nc3c2C(C)C)cn2ncnc12` (single isomer, unassigned) [Example 141, 1-((4-(6-isopropyl-5-(8-methyl-[1,2,4]triazolo[1,5-a]pyridin-6-yl)-4H-pyrrolo[3,2-d]thiazol-2-yl)cyclohexyl)amino)-2-methylpropan-2-ol]: the concentration for half-maximal inhibition (IC50) stood at 3.03 nM on human TLR7, 12800 nM on human TLR9 and 13.5 nM on human TLR8.

Regarding `Cc1cc(-c2[nH]c3sc(C4CCC(NCC5(CO)CC5)CC4)nc3c2C(C)C)cn2ncnc12` (single isomer, unassigned) [Example 142, (1-(((4-(6-isopropyl-5-(8-methyl-[1,2,4]triazolo[1,5-a]pyridin-6-yl)-4H-pyrrolo[3,2-d]thiazol-2-yl)cyclohexyl)amino)methyl)cyclopropyl)methanol], the values for the 50% inhibitory concentration (IC50) at human TLR7, on human TLR9 and on human TLR8 were 2.08 nM, 6970 nM and 2.7 nM, respectively.

Take `Cc1cc(-c2[nH]c3sc(C4CCC(NCC5(CO)CC5)CC4)nc3c2C(C)C)cn2ncnc12` (single isomer, unassigned) [Example 143, (1-(((4-(6-isopropyl-5-(8-methyl-[1,2,4]triazolo[1,5-a]pyridin-6-yl)-4H-pyrrolo[3,2-d]thiazol-2-yl)cyclohexyl)amino)methyl)cyclopropyl)methanol]: the half-inhibitory concentration (IC50) on human TLR7 turned out to be 5.34 nM; at human TLR9, 9280 nM; on human TLR8 it was 19.6 nM.

As to `Cc1cc2ncnn2cc1-c1[nH]c2sc(C3CCC(NC4(C)COC4)CC3)nc2c1C(C)C` (single isomer, unassigned) [Example 144, N-(4-(6-isopropyl-5-(7-methyl-[1,2,4]triazolo[1,5-a]pyridin-6-yl)-4H-pyrrolo[3,2-d]thiazol-2-yl)cyclohexyl)-3-methyloxetan-3-amine], the half-maximal inhibitory concentration (IC50) at human TLR7 was found to be 7.26 nM; at human TLR9, 15200 nM; at human TLR8, 3.56 nM.

`Cc1cc2ncnn2cc1-c1[nH]c2sc(C3CCC(NC4(C)COC4)CC3)nc2c1C(C)C` (single isomer, unassigned) [Example 145, N-(4-(6-isopropyl-5-(7-methyl-[1,2,4]triazolo[1,5-a]pyridin-6-yl)-4H-pyrrolo[3,2-d]thiazol-2-yl)cyclohexyl)-3-methyloxetan-3-amine]: the IC50 at human TLR7 was 60.3 nM; at human TLR9, over 50000 nM; on human TLR8, 41.6 nM.

Regarding `Cc1cc2ncnn2cc1-c1[nH]c2sc(C3CCC(N4CCCOCC4)CC3)nc2c1C(C)C` (single isomer, unassigned) [Example 146, 4-(4-(6-isopropyl-5-(7-methyl-[1,2,4]triazolo[1,5-a]pyridin-6-yl)-4H-pyrrolo[3,2-d]thiazol-2-yl)cyclohexyl)-1,4-oxazepane], the values for the IC50 at human TLR7, against human TLR9 and at human TLR8 were 19.7 nM, 16300 nM and 0.92 nM, respectively.

As to `Cc1cc2ncnn2cc1-c1[nH]c2sc(C3CCC(N4CCCOCC4)CC3)nc2c1C(C)C` (single isomer, unassigned) [Example 147, 4-(4-(6-isopropyl-5-(7-methyl-[1,2,4]triazolo[1,5-a]pyridin-6-yl)-4H-pyrrolo[3,2-d]thiazol-2-yl)cyclohexyl)-1,4-oxazepane], the IC50 worked out at 90.1 nM on human TLR7, 18800 nM against human TLR9 and 5.67 nM on human TLR8.

`Cc1cc2ncnn2cc1-c1[nH]c2sc(C3CCC(N4CCNC(=O)C4)CC3)nc2c1C(C)C` (single isomer, unassigned) [Example 148, 4-(4-(6-isopropyl-5-(7-methyl-[1,2,4]triazolo[1,5-a]pyridin-6-yl)-4H-pyrrolo[3,2-d]thiazol-2-yl)cyclohexyl)piperazin-2-one]: the values for the IC50 at human TLR7, against human TLR9 and at human TLR8 were 11.8 nM, over 50000 nM and 9.93 nM, respectively.

Take `Cc1cc2ncnn2cc1-c1[nH]c2sc(C3CCC(N4CCNC(=O)C4)CC3)nc2c1C(C)C` (single isomer, unassigned) [Example 149, 4-(4-(6-isopropyl-5-(7-methyl-[1,2,4]triazolo[1,5-a]pyridin-6-yl)-4H-pyrrolo[3,2-d]thiazol-2-yl)cyclohexyl)piperazin-2-one]: the values for the half-maximal inhibitory concentration (IC50) at human TLR7, at human TLR9 and on human TLR8 were 108 nM, over 50000 nM and 98.5 nM, respectively.
